Patent US20080318911A1, “20-Cyclopropyl, 26,27-Alkyl/Haloalkyl Vitamin D3 Compounds and Methods of Use Thereof” (BIOXELL S.P.A., priority 2004, published 2008)
In brackets after ≈: the same amount, converted by molar mass.

Tests used:
[1] = Determination of Maximum Tolerated Dose (MTD) in mice; conditions: mouse, in vivo, po; female C57BL/6 mice, p.o. daily for four days; highest dose without hypercalcemia (serum calcium >10.7 mg/dl)
[2] = tested on: IFN-γ production by allogeneic PBMC; assay: IFN-γ production in the mixed leukocyte response (MLR); format: cell-based; conditions: 120 h; MLR of allogeneic PBMC, 5 days, ELISA; read-out: INF-γ IC50
Procedure: Immature dendritic cells (DC) were prepared as described in Romani, N. et al. (Romani, N. et al. (1996) J. Immunol. Meth. 196:137). IFN-γ production by allogeneic T cell activation in the mixed leukocyte response (MLR) was determined as described in Penna, G., et al., J Immunol., 164: 2405-2411 (2000).
Briefly, peripheral blood mononuclear cells (PBMC) were separated from buffy coats by Ficoll gradient and the same number (3×10^5) of allogeneic PBMC from 2 different donors were co-cultured in 96-well flat-bottom plates. The vitamin D3 compounds were added to each of the cultures.

RT112 = assay: Proliferation assay using bladder cancer cell lines: RT112; format: cell-based, human; conditions: 72 h culture, CyQuant proliferation assay
Procedure: (§1) Bladder cancer cell lines (T24, RT112, HT1376 and RT4 are human bladder cancer cell lines; NHEK are normal human keratinocytes) were obtained from the European Collection of Cell Cultures (Salisbury, UK). Cells were plated at 3×10^3 per well, in flat bottomed 96-well plates in 100 μl of DMEM medium containing: 5% Fetal Clone 1,50 μg/l gentamicin, 1 mM sodium pyruvate and 1% non-essential amino acids. After culturing for 24 h at 37° C. in 5% CO2, to allow cells to adhere to the plates, VDR ligands (compounds (1)-(14)) were added at concentrations ranging from 100 μM to 0.3 μM in 100 μl of above-mentioned complete medium. After a further 72 h of culture, cell proliferation was measured using a fluorescence-based proliferation assay kit. (CyQuant Cell Proliferation Assay Kit, Molecular Probes, Eugene, Oreg., USA). The IC50 was calculated from the regression curve of the titration data.

HT1376 = assay: Proliferation assay using bladder cancer cell lines: HT1376; format: cell-based; conditions: Homo sapiens, HT-1376; 72 h culture, CyQuant proliferation assay
Procedure: as §1

RT4 = assay: Proliferation assay using bladder cancer cell lines: RT4; format: cell-based, human; conditions: 72 h culture, CyQuant proliferation assay
Procedure: as §1

NHEK = assay: Proliferation assay: NHEK normal human keratinocytes; format: cell-based; conditions: 72 h culture, CyQuant proliferation assay
Procedure: as §1

[3] = tested on: human stromal bladder cells; assay: Basal growth of human stromal bladder cells; format: cell-based; conditions: FIG. 2
Excerpt: The Inventors confirmed the presence of vitamin D receptors (VDRs), as previously reported in the literature, on these cells (see below in FIG. 1).
The maximum tolerated dose (MTD) in rats is also listed for each compound (Table 5).

[4] = tested on: Renin mRNA in As4.1 cells; assay: Renin mRNA inhibition in murine juxtaglomerular cell line As4.1; format: cell-based; conditions: Mus musculus, 24 h, real time PCR normalized versus β-actin, read-out: Renin mRNA inh.As4.1/wt
Procedure: As4.1 cells (80% subconfluent) were treated in complete medium with compounds of the invention at 10^−8, 10^−9 and 10^−10 M for 24 h. Total RNA was extracted using RNeasy Mini kit (Qiagen); treated with DNase I (Qiagen) and Reverse Transcription Reagent (Applied Biosystems) with Random Examers were used for reverse transcription according to the manufacturers' instructions. Real Time PCR analysis was performed in multiplex using commercially available β-actin VIC-conjugated probe (cat. n. 4352341E, Applied Biosystems) and custom designed mRENIN FAM-conjugated probe (Assay by Design, Applied Biosystems; Forward: […]; Reverse: […]; Probe: FAM-[…]-MGB). Reactions were performed in a 25 μL volume containing 12,5 μl 2× Master Mix (Applied Biosystems), 10 ng/reaction/well cDNA, and 2,5 μM each gene-specific primer. An ABI PRISM 7700 analyzer (Applied Biosystems) was used at 50° C. for 2 minutes and 95° C. for 10 minutes, followed by 40 cycles at 95° C. for 15 seconds and 60° C. for 1 minute. Cycle threshold (Ct) values were exported onto Excel worksheets for analysis. Test cDNA results were normalized versus mouse β-actin housekeeping gene. Fold differences in gene expression between the subtracted versus the unsubtracted populations were expressed using the method of 2^−ΔΔCt. (Table 6)

[5] = Theoretical maximum absorbable dose (MAD), human intestine
Procedure: (§2) To evaluate the intestinal absorption potential of selected compounds, the maximum absorbable dose (MAD) in mouse, rat and human intestines was also calculated using a modification of the original equation (Johnson 1996, Hilgers 2003): MAD (mg)=S·Pe·(A/ILV)·SIV·SITT (Eq. 1), where S is the solubility measured at pH 7.4 (mg/ml), Pe is the permeability measured in artificial membranes (PAMPA) or in the apical to basolateral direction of Caco-2 cells (cm/sec), A is the intestinal surface area (cm^2), ILV is the intestinal lumen volume (cm^3), SIV is the small intestinal volume (ml) and SITT is the small intestinal transit time (sec).

[6] = Theoretical maximum absorbable dose (MAD), mouse intestine
Procedure: as §2

[7] = Theoretical maximum absorbable dose (MAD), rat intestine
Procedure: as §2

[8] = Apparent permeability on Caco-2 cells; format: in vitro ADME, Human; conditions: human, Caco-2, Table 8; for Papp A→B at 2 h, 10 μM: apical to basolateral, read-out: Caco2 Papp_AB; for Papp B→A at 2 h, 10 μM: basolateral to apical, read-out: Caco2 Papp_BA
Procedure: (§3) Apparent Permeability on Caco-2 cells. Human colon adenocarcinoma (Caco-2) cells were obtained from the American Type Culture Collection (Rockville, Md.). Permeability studies were performed using a 24-well format in both transport directions, apical to basolateral (A→B) and basolateral to apical (B→A), on Caco-2 monolayers. Fresh donor solution containing 10 μM test compound was added to either the apical or the basolateral side, while drug-free medium was placed on the opposite side. The 24-transwell plates were placed on a plate shaker at 37° C. After 2 h, the buffer from the receiving and donor chambers were collected and aliquots were analysed via LC-MS/MS. The data reported were the permeability cm·10^−6/sec and the efflux ratio.

Caco-2 cells = assay: Apparent permeability on Caco-2 cells; format: in vitro ADME, Human; conditions: for Papp_A > B / Mass Bal A > B: apical to basolateral; for Papp_A > B / Papp_B >: 10 μM, 2 h; for Mass Bal A > B: unit assumed; for Mass Bal B > A / Papp_B >: basolateral to apical
Procedure: as §3

[9] = Solubility in aqueous buffer; format: physicochemical; conditions: kinetic from dmso stock; for solubility at 2 h: pH 7, 2 h; for solubility at 24 h: pH 7, 24 h; for solubility: pH 7.4, aqueous buffer
Procedure: […] A 96-well plate format assay was used. […] Solutions were filtered through a 0.22 μm and concentrations of the concentration of the compound in the filtrate was determined using LC-MS/MS in comparison with 1 and 10 μM standards. The measurements were expressed as mM.

[10] = target: T1, human cDNA expressed CYP3A4 (Homo sapiens, UniProt P08684); assay: Metabolic stability (hCYP3A4); format: in vitro ADME; conditions: 2 μM, 60 min at 37° C.
T1 construct: purchased Gentest
Procedure: Metabolic Stability (hCYP34A4). The relative stability of the substrate was determined by measuring the amount of substrate remaining following incubation with human cDNA expressed CYP3A4 microsomal preparations (Gentest, 6 pmol) against a control microsomal incubation containing no active cytochrome P450. The assay was performed in a 96-well plate format. Each compound was incubated at a concentration of 2 μM for 60 min at 37° C. LC-MS/MS was used for determining the compound remaining after incubation. The results were expressed as % remaining.

[11] = Permeability by passive diffusion (PAMPA); format: in vitro ADME; conditions: for Papp at 4 h, 10 μM: PAMPA
Procedure: Permeability by Passive Diffusion (PAMPA). Experiments were performed in 96-well acceptor and donor plates using 15% soy lecithin in n-dodecane artificial membranes. The acceptor plate (96 well hydrophobic filter plate (MAIP N45, Millipore)) was prepared by adding 4 μL of artificial membrane material on the top of the filter and the plate was filled with 200 μL of HEPES buffered HBSS (pH 7.4). The donor plate (an indented 96-well plate from p-ION, MA) was filled with 200 μL of HEPES buffered HBSS (pH 7.4) containing 10 μM of the test compounds. The acceptor plate was placed onto the donor plate to form a “sandwich” and was incubated at 37° C. for 4 hours. After the incubation period, acceptor, donor and initial donor solution (reference) were analysed via LC-MS/MS. Data were reported as bilateral Peff in cm×10^−6/sec and % retention in the membrane.

[12] = calculated using Caco2-AB permeability
[13] = calculated using PAMPA permeability

T1 sequence (P08684 whole entry): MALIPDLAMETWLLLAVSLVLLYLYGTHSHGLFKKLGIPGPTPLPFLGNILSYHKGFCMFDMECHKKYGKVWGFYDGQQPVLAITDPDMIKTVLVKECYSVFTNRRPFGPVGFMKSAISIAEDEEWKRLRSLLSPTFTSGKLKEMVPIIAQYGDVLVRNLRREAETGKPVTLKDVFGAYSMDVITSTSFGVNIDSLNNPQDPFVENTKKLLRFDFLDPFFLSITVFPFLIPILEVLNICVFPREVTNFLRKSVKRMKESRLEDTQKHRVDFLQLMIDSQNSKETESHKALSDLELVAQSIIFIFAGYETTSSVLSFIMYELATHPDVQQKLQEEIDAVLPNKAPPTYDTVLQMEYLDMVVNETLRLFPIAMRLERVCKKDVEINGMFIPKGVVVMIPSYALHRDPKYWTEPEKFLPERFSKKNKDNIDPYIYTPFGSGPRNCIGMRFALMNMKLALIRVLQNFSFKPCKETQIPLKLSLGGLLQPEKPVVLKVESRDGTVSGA

SMILES | MTD at 4 days [1] [µg/kg] | IC50 [2] [nM] | IC50 (NHEK) [µM] | IC50 (RT112; Homo sapiens, RT-112) [µM] | IC50 (RT4; Homo sapiens, RT-4) [µM] | IC50 [4] [µM] | Papp A→B at 2 h, 10 μM [8] [×10⁻⁶ cm/s] | Papp B→A at 2 h, 10 μM [8] [×10⁻⁶ cm/s] | Papp_A > B (Caco-2 cells) [cm·10^−6/sec] | Mass Bal A > B (Caco-2 cells) [%] | Mass Bal B > A (Caco-2 cells) [%] | Papp_B > (Caco-2 cells) [cm·10^−6/sec] | solubility at 2 h [9] [µM] | solubility at 24 h [9] [µM] | solubility [9] [µg/mL] | CYP3A4 stability [10] [% remaining] | other results
C=C1/C(=C\C=C2/CCC[C@]3(C)C([C@H](C)CCCC(C)(C)O)CC[C@@H]23)C[C@@H](O)C[C@@H]1O (some centres unmarked) [1,25(OH)2D3, 1,25-dihydroxycholecalciferol, reference compound] | 0.3 | 0.0496 | 4.5 |  |  |  |  |  |  |  |  |  |  |  |  |  | IC50 (RT112): 28.7 µM; IC50 (RT112; Homo sapiens, RT-112, 72 h): 19 µM; IC50 (HT1376): 50 µM; IC50 (RT4): 26 µM; IC50 (RT4; Homo sapiens, RT-4, 72 h): 45 µM; inhibiting the basal growth of bladder cells [3]: effective
C[C@]12CCC/C(=C\C=C3\CC(O)C[C@H](O)C3)C1CC=C2C1(CC#CC(O)(C(F)(F)F)C(F)(F)F)CC1 (stereo partly drawn) [Compound 3, 1α,25-Dihydroxy-16-ene-20-cyclopropyl-23,24-yne-26,27-hexafluoro-19-nor-cholecalciferol] | 0.3 | 0.014 | 1 | 22.7 | 5.2 | 0.00073 | 3 | 6 | 3.0 | 8.8 | 50.5 | 6.0 | 1.3 (≈ 0.674 µg/mL) | 7.1 (≈ 3.68 µg/mL) | 0.674 (≈ 1.3 µM) | 45.5 | MAD (ug) human (Caco2-AB) [5, 12]: 54.43 (Caco2-AB) ug; MAD (ug) mouse (Caco2-AB) [6, 12]: 0.16 (Caco2-AB) ug; MAD (ug) rat (Caco2-AB) [7, 12]: 0.78 (Caco2-AB) ug
CC(C)(O)CCCC1(C2=CCC3/C(=C/C=C4/CC(O)C[C@H](O)C4)CCC[C@]23C)CC1 (stereo partly drawn) [Compound 9, 1α,25-Dihydroxy-16-ene-20-cyclopropyl-19-nor-cholecalciferol] | 1 | 0.031 | 6.1 | > 30 | 9.9 | 0.00878 | 4.82 | 6.46 | 4.8 | 36.7 | 89.1 | 6.5 | 19.9 (≈ 8.25 µg/mL) | 21.6 (≈ 8.96 µg/mL) | 8.27 (≈ 19.9 µM) | 33.3 | MAD (ug) human (PAMPA) [5, 13]: 8023.11 µg; MAD (ug) mouse (PAMPA) [6, 13]: 23.61 µg; MAD (ug) rat (PAMPA) [7, 13]: 115.08 µg; PAMPA % Memb ([11]; % retention in the membrane): 97.1%; Papp at 4 h, 10 μM ([11]; pH 7.4, 10 μM, pH 7.4, 37° C., 4 hours, Table 9): 36 ×10⁻⁶ cm/s; Papp at 4 h, 10 μM ([11]; pH 7.4, Table 8): 36 ×10⁻⁶ cm/s
